The text below walks through data of patent US10206937B2, “Boronic acid derivatives and therapeutic uses thereof” (Qpex Biopharma, Inc., priority 2014, dated 2019).

Read-outs that look alike come from different tables or passages of the source.

One may read the Ki as the dissociation constant of the complex between target and ligand, obtained from inhibition or displacement. Usually IC50 stands for the concentration needed to halve the response being measured.

Experiment [1] addresses T1, NDM-1 (Klebsiella pneumoniae, UniProt C7C422). Kind of experiment: biochemical.
The target in the next experiment is OXA-48 (Klebsiella pneumoniae, UniProt Q6XEC0). The experiment is described as follows: Inhibition of purified class D carbapenemase OXA-48 (Ki, carbapenem substrates). The class given is biochemical.
The target in experiment [2] is T1, NDM-1. Kind of experiment: Inhibition of purified class B carbapenemase NDM-1 (Ki, imipenem substrate). The class given is biochemical. To be noted: NDM-1, substrate imipenem; read-out: Ki NDM-1, Imipenem.
Experiment [3] deals with T2, purified class A, C and D enzymes (UniProt P0AD64, L31Q/G234S/E235K, species not given).
T2 construct: Ki (SHV-12, NCF); other: purified SHV-12; nitrocefin reporter substrate
T2 sequence (P0AD64 1-286 L31Q/G234S/E235K): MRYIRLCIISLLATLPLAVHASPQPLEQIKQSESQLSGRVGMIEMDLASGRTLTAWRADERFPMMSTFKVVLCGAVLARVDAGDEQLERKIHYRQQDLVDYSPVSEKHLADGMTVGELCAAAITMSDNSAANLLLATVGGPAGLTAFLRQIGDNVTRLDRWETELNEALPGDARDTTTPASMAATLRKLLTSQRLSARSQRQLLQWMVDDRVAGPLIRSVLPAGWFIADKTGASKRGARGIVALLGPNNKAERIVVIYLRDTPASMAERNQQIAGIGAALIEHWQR
Format: biochemical. To be noted: read-out: Ki (SHV-12, NCF); purified SHV-12; nitrocefin reporter substrate.

The target of experiment [4] is T3, purified class A, C and D enzymes (UniProt Q48434).
T3 construct: rows headed: Ki (CMY-2, NCF); other: purified CMY-2; nitrocefin reporter substrate
The class given is biochemical. As to conditions: read-out: Ki (CMY-2, NCF); purified CMY-2; nitrocefin reporter substrate.

Experiment [5] deals with T4, purified class A, C and D enzymes (UniProt Q6XEC0).
T4 construct: rows headed: Ki (OXA-48, NCF); other: purified OXA-48; nitrocefin reporter substrate
Format: biochemical. As to conditions: read-out: Ki (OXA-48, NCF); purified OXA-48; nitrocefin reporter substrate.

Experiment [6] has as its target T5, purified class A, C and D enzymes (UniProt Q9F663).
T5 construct: rows headed: Ki (KPC-2, NCF); other: purified KPC-2; nitrocefin reporter substrate
Format: biochemical. To be noted: read-out: Ki (KPC-2, NCF); purified KPC-2; nitrocefin reporter substrate.

The next experiment deals with T6, VIM-1 (Pseudomonas aeruginosa, UniProt A0A0F7KYQ8).
T6 construct: made in house; host or cells: ECM6711 strain carrying pUCP24-VIM-1 plasmid; culture supernatant used unpurified
The experiment is described as follows: biochemical. To be noted: cleavage of nitrocefin (200 uM) by VIM-1 supernatant.

Experiment [7] relates to EC1064 (NDM-1, CMY-6, CTX-M-15). Kind of experiment: Carbapenem potentiation against clinical isolate (MIC). The class given is cell-based, Escherichia coli. To be noted: antibiotic alone.
The test system of experiment [8] is KP1081 (NDM-1, TEM-1, SHV-11, CMY-6, CTX-M-15). Described as above. Format: cell-based. As to conditions: antibiotic alone.
The test system of the next experiment is AB1144 (NDM-1). The experiment is described as above. The class given is cell-based, Acinetobacter baumannii. As to conditions: AB1144; antibiotic alone.
The subject of a further experiment is EA1019 (SHV-5, VIM-1). The experiment is described as above. As to conditions: EA1019; antibiotic alone. Format: cell-based, Enterobacter aerogenes.
In another experiment the test system is KP1014 (VIM-1). The experiment is described as above. To be noted: antibiotic alone. The class given is cell-based, Klebsiella pneumoniae.
Another experiment concerns KP1054 (VIM-1, SHV-11). The description is as above. The class given is cell-based, Klebsiella pneumoniae. As to conditions: antibiotic alone.
For experiment [9], the system named is KP1064 (KPC-2, SHV-11, TEM-1). The experiment is described as above. The class given is cell-based, Klebsiella pneumoniae. To be noted: antibiotic alone.
Experiment [10] has as its system KP1074 (KPC-3, SHV-11, TEM). The description is as above. To be noted: antibiotic alone. The class given is cell-based, Klebsiella pneumoniae.
For experiment [11], the system named is KP1084 (KPC-3, SHV-11, TEM-1). Described as above. The class given is cell-based, Klebsiella pneumoniae. As to conditions: antibiotic alone.
Experiment [12] relates to KP1004 (KPC-2, TEM-1, SHV-11). The description is as above. Format: cell-based, Klebsiella pneumoniae. As to conditions: antibiotic alone.
Experiment [13] concerns KP1087 (KPC-2, CTX-M-15, SHV-11, TEM-1). The description is as above. Format: cell-based. To be noted: antibiotic alone.
Experiment [14] concerns KP1086 (TEM, SHV, CTX-M-15, OXA-48). Described as above. Format: cell-based, Klebsiella pneumoniae. To be noted: antibiotic alone.
The mark [15] stands for this setting: cleavage of biapenem (100 uM) by NDM-1, read-out: Ki, Biapenem.
Where [16] appears, read: cleavage of imipenem (100 uM) by NDM-1, read-out: Ki, Imipenem.
Setting [17] is: cleavage of tebipenem (100 uM) by NDM-1, read-out: Ki, Tebipenem.
Setting [18] is: purified OXA-48, substrate biapenem, read-out: Ki OXA-48, Biapenem.

T1 sequence (C7C422 29-270, looked up, species assumed): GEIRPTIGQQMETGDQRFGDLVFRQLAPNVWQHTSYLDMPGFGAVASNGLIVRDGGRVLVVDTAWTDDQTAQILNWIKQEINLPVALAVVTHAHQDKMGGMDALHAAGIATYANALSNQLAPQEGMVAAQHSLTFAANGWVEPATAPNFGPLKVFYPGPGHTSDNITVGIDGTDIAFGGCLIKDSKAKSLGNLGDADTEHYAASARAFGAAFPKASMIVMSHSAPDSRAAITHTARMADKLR
Sequence of OXA-48 (Q6XEC0 23-265, looked up): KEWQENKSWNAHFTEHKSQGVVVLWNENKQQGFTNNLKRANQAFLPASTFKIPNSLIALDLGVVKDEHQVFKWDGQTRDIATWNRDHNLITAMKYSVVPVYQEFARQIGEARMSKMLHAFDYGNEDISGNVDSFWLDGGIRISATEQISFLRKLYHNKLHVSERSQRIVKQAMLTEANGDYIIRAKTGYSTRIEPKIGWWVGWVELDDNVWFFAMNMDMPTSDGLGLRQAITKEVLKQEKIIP

Regarding `NC(=O)CS[C@H]1Cc2cccc(C(=O)O)c2OB1O` [Compound 3, (R)-3-(2-amino-2-oxoethylthio)-2-hydroxy-3,4-dihydro-2H-benzo[e][1,2]oxaborinine-8-carboxylic acid], the Ki was over 0.1 µM on NDM-1 [1] (setting [15]); over 0.1 µM at NDM-1 [1] (setting [16]); over 0.1 µM at NDM-1 [1] (setting [17]); under 0.01 µM on OXA-48 (setting [18]); over 0.1 µM on NDM-1 [2]; 0.1 to 1 µM in experiment [3]. Further, the Ki in experiment [4], in experiment [5] and in experiment [6] was under 0.1 µM throughout.
In the case of `Cn1cnnc1S[C@H]1Cc2cccc(C(=O)O)c2OB1O` [Compound 15, (R)-2-hydroxy-3-(4-methyl-4H-1,2,4-triazol-3-ylthio)-3,4-dihydro-2H-benzo[e][1,2]oxaborinine-8-carboxylic acid], the Ki on NDM-1 [1] (setting [15]) was 0.01 to 0.1 µM; at NDM-1 [1] (setting [16]) it was 0.01 to 0.1 µM; on NDM-1 [1] (cleavage of meropenem (100 uM) by NDM-1, read-out: Ki, Meropenem), 0.01 to 0.1 µM; at OXA-48 (setting [18]), under 0.01 µM; in experiment [3], under 0.1 µM; in experiment [4], under 0.1 µM. Besides, the Ki in experiment [5] was under 0.1 µM; in experiment [6] it was 0.1 to 1 µM. At VIM-1, this molecule showed an IC50 of under 1 µM.
For the molecule `Nc1nnc(S[C@H]2Cc3cccc(C(=O)O)c3OB2O)s1` [Compound 4, (R)-3-(5-amino-1,3,4-thiadiazol-2-ylthio)-2-hydroxy-3,4-dihydro-2H-benzo[e][1,2]oxaborinine-8-carboxylic acid], the Ki at NDM-1 [1] (setting [15]) was under 0.01 µM; on NDM-1 [1] (setting [16]) it was under 0.01 µM; at NDM-1 [1] (setting [17]) it was under 0.01 µM; on OXA-48 (cleavage of biapenem by OXA-48, read-out: Ki, Biapenem) it was under 0.01 µM; at OXA-48 (cleavage of doripenem by OXA-48, read-out: Ki, Doripenem), 0.01 to 0.1 µM; on OXA-48 (cleavage of imipenem by OXA-48, read-out: Ki, Imipenem), under 0.01 µM. The Ki on OXA-48 (cleavage of meropenem by OXA-48, read-out: Ki, Meropenem) is over 0.1 µM; at OXA-48 (cleavage of tebipenem by OXA-48, read-out: Ki, Tebipenem), 0.01 to 0.1 µM; at OXA-48 (setting [18]) it was under 0.01 µM; on NDM-1 [2], under 0.01 µM; in experiment [3], under 0.1 µM; in experiment [4] it was under 0.1 µM. The Ki in experiment [5] was under 0.1 µM. Moreover, on VIM-1, the IC50 was under 1 µM.
As to `C[C@@H](O)[C@H]1C(=O)N2C(C(=O)O)=C(S[C@@H]3CN[C@H](CNS(N)(=O)=O)C3)[C@H](C)[C@H]12` [Doripenem], the “Carbapenem MIC Alone” value was “Z (MIC of greater than 10 μg/mL)” in experiment [7]; “Z (MIC of greater than 10 μg/mL)” in experiment [8]; “Z (MIC of greater than 10 μg/mL)” in the experiment on AB1144 (NDM-1); “Z (MIC of greater than 10 μg/mL)” in the experiment with EA1019 (SHV-5, VIM-1); “Z (MIC of greater than 10 μg/mL)” in the experiment on KP1014 (VIM-1); “Z (MIC of greater than 10 μg/mL)” with KP1054 (VIM-1, SHV-11). The “Carbapenem MIC Alone” value is “Z (MIC of greater than 10 μg/mL)” in experiment [9]; “Z (MIC of greater than 10 μg/mL)” in experiment [10]; “Z (MIC of greater than 10 μg/mL)” in [11]; “Y (MIC of 1 μg/mL to 10 μg/mL)” in experiment [12]; “Z (MIC of greater than 10 μg/mL)” in [13]; “Z (MIC of greater than 10 μg/mL)” in experiment [14].
Take `NC(=O)CCS[C@H]1Cc2cccc(C(=O)O)c2OB1O` [Compound 9, (R)-3-(3-amino-3-oxopropylthio)-2-hydroxy-3,4-dihydro-2H-benzo[e][1,2]oxaborinine-8-carboxylic acid]: the Ki at NDM-1 [1] (setting [16]) is over 0.1 µM; on OXA-48 (setting [18]) it was 0.01 to 0.1 µM; at NDM-1 [2] it was over 0.1 µM; in experiment [3], 0.1 to 1 µM; in experiment [4] it was under 0.1 µM; in experiment [5], under 0.1 µM. Further, the Ki in experiment [6] was under 0.1 µM. The IC50 against VIM-1 was under 1 µM.
Turning to `O=C(O)c1cccc2c1OB(O)[C@@H](Sc1nnc[nH]1)C2` [Compound 2, (R)-3-(4H-1,2,4-triazol-3-ylthio)-2-hydroxy-3,4-dihydro-2H-benzo[e][1,2]oxaborinine-8-carboxylic acid], the Ki is under 0.01 µM on NDM-1 [1] (setting [16]); 0.01 to 0.1 µM on NDM-1 [1] (setting [17]); 0.01 to 0.1 µM on OXA-48 (setting [18]); under 0.01 µM at NDM-1 [2]; under 0.1 µM in experiment [3]; 0.1 to 1 µM in [4]. Further, the Ki was under 0.1 µM in experiment [5] and 0.1 to 1 µM in experiment [6]. Moreover, the IC50 against VIM-1 was under 1 µM.
